In brackets after ≈: the same amount, converted by molar mass.
Tests used:
[1] = tested on: Acinetobacter baumannii; assay: Antibacterial activity against Acinetobacter baumannii ATCC 19606; assay type: functional
[2] = tested on: Escherichia coli; assay: Antibacterial activity against penicillin-susceptible Escherichia coli ATCC 25922; assay type: functional
[3] = tested on: Enterococcus faecalis; assay: Antibacterial activity against vancomycin-susceptible Enterococcus faecalis ATCC 29212; assay type: functional
[4] = tested on: Staphylococcus aureus; assay: Antibacterial activity against methicillin-resistant Staphylococcus aureus ATCC 43300; assay type: functional
[5] = tested on: Staphylococcus aureus; assay: Antibacterial activity against erythromycin-susceptible Staphylococcus aureus ATCC 25923; assay type: functional
[6] = tested on: Staphylococcus aureus; assay: Antibacterial activity against penicillin-resistant Staphylococcus aureus ATCC 31007; assay type: functional
[7] = Hemolytic activity in sheep RBC; assay type: toxicity, cell-based, Ovis aries, Erythrocyte; settings: sheep red blood cells (erythrocytes)
[8] = Selectivity index, ratio of HC50 for hemolytic activity in sheep RBC to MIC for antibacterial activity against methicillin-resistant Staphylococcus aureus ATCC 43300; assay type: toxicity; settings: sheep red blood cells (erythrocytes), read-out: Selectivity Index
[9] = tested on: Bacillus subtilis; assay: Antibacterial activity against penicillin-susceptible Bacillus subtilis ATCC 9372; assay type: functional
[10] = tested on: Staphylococcus epidermidis; assay: Antibacterial activity erythromycin-susceptible Staphylococcus epidermidis ATCC 12228; assay type: functional
[11] = tested on: Klebsiella pneumoniae; assay: Antibacterial activity against Klebsiella pneumoniae ATCC 10031; assay type: functional
[12] = tested on: Pseudomonas aeruginosa; assay: Antibacterial activity against penicillin-susceptible Pseudomonas aeruginosa ATCC 27853; assay type: functional

SMILES | MIC [1] | MIC [2] | MIC [3] | MIC [4] | MIC [5] | MIC [6] | HC50 [7] | selectivity ratio [8] | MIC [9] | MIC [10] | MIC [11] | MIC [12]
CCCCN(CCCC)CCCNCCCOc1c2c(c3c(c1C(C)=O)OC(C)(CCC=C(C)C)C=C3)OC(C)(CCC=C(C)C)C=C2 (centres undefined) | 4 mg/L (≈ 6.03 µM) | 8 mg/L (≈ 12.1 µM) | 1 mg/L (≈ 1.51 µM) | 4 mg/L (≈ 6.03 µM) | 1 mg/L (≈ 1.51 µM) | 2 mg/L (≈ 3.02 µM) | 36.7 µg/mL | 9.2 | 4 mg/L (≈ 6.03 µM) | 1 mg/L (≈ 1.51 µM) | 8 mg/L (≈ 12.1 µM) | 128 mg/L (≈ 193 µM)
CCN(CC)CCCNCCCOc1c(C(C)=O)ccc2c1C=CC(C)(CCC=C(C)C)O2 (centres undefined) | 8 mg/L (≈ 17.5 µM) | 8 mg/L (≈ 17.5 µM) | 8 mg/L (≈ 17.5 µM) | 8 mg/L (≈ 17.5 µM) | 8 mg/L (≈ 17.5 µM) | 16 mg/L (≈ 35 µM) | 140 µg/mL | 17.5 | 8 mg/L (≈ 17.5 µM) | 8 mg/L (≈ 17.5 µM) | 8 mg/L (≈ 17.5 µM) | 16 mg/L (≈ 35 µM)
CC(=O)c1ccc2c(c1OCC(=O)NCCN(C)C)C=CC(C)(CCC=C(C)C)O2 (centres undefined) | 64 mg/L (≈ 154 µM) | 128 mg/L (≈ 309 µM) | 64 mg/L (≈ 154 µM) | 128 mg/L (≈ 309 µM) | 64 mg/L (≈ 154 µM) | 128 mg/L (≈ 309 µM) | 316 µg/mL | 4.9 | 64 mg/L (≈ 154 µM) | 64 mg/L (≈ 154 µM) | 32 mg/L (≈ 77.2 µM) | 128 mg/L (≈ 309 µM)
CC(=O)c1c(OCCCN(CCCN(C)C)CCCN(C)C)c2c(c3c1OC(C)(CCC=C(C)C)C=C3)OC(C)(CCC=C(C)C)C=C2 (centres undefined) | 8 mg/L (≈ 12 µM) | 8 mg/L (≈ 12 µM) | 4 mg/L (≈ 6.02 µM) | 2 mg/L (≈ 3.01 µM) | 4 mg/L (≈ 6.02 µM) | 4 mg/L (≈ 6.02 µM) | 30.2 µg/mL | 15.1 | 4 mg/L (≈ 6.02 µM) | 4 mg/L (≈ 6.02 µM) | 8 mg/L (≈ 12 µM) | 128 mg/L (≈ 193 µM)
CC(=O)c1ccc2c(c1OCC(=O)NCCCN1CCCC1)C=CC(C)(CCC=C(C)C)O2 (centres undefined) | 128 mg/L (≈ 282 µM) | > 128 mg/L | 64 mg/L (≈ 141 µM) | 32 mg/L (≈ 70.4 µM) | 32 mg/L (≈ 70.4 µM) | 32 mg/L (≈ 70.4 µM) | 167 µg/mL | 5.2 | 64 mg/L (≈ 141 µM) | 64 mg/L (≈ 141 µM) | 64 mg/L (≈ 141 µM) | > 128 mg/L
CCCCN(CCCC)CCCNC(=O)COc1c(C(C)=O)ccc2c1C=CC(C)(CCC=C(C)C)O2 (centres undefined) | 128 mg/L (≈ 250 µM) | > 128 mg/L | 32 mg/L (≈ 62.4 µM) | 8 mg/L (≈ 15.6 µM) | 16 mg/L (≈ 31.2 µM) | 16 mg/L (≈ 31.2 µM) | 270 µg/mL | 33.8 | 4 mg/L (≈ 7.8 µM) | 32 mg/L (≈ 62.4 µM) | 128 mg/L (≈ 250 µM) | > 128 mg/L
CCN(CC)C(=O)COc1c(C(C)=O)ccc2c1C=CC(C)(CCC=C(C)C)O2 (centres undefined) | 128 mg/L (≈ 320 µM) | > 128 mg/L | > 128 mg/L | 128 mg/L (≈ 320 µM) | > 128 mg/L | > 128 mg/L | 131 µg/mL | 1 | > 128 mg/L | > 128 mg/L | > 128 mg/L | > 128 mg/L
CC(=O)c1ccc2c(c1OCC(=O)NCCCN1CCOCC1)C=CC(C)(CCC=C(C)C)O2 (centres undefined) | 128 mg/L (≈ 272 µM) | > 128 mg/L | 128 mg/L (≈ 272 µM) | 64 mg/L (≈ 136 µM) | 128 mg/L (≈ 272 µM) | 128 mg/L (≈ 272 µM) | 261 µg/mL | 4.1 | 128 mg/L (≈ 272 µM) | 128 mg/L (≈ 272 µM) | 128 mg/L (≈ 272 µM) | > 128 mg/L
COc1c(C(=O)/C=C/c2ccc(OCCCN(C)CCCN(C)C)cc2)ccc2c1C=CC(C)(CCC=C(C)C)O2 (centres undefined) | 8 mg/L (≈ 14.3 µM) | 2 mg/L (≈ 3.57 µM) | 2 mg/L (≈ 3.57 µM) | 4 mg/L (≈ 7.13 µM) | 4 mg/L (≈ 7.13 µM) | 4 mg/L (≈ 7.13 µM) | 119 µg/mL | 29.8 | 4 mg/L (≈ 7.13 µM) | 1 mg/L (≈ 1.78 µM) | 4 mg/L (≈ 7.13 µM) | > 128 mg/L
CC(=O)c1c(OCCCNCCCN2CCOCC2)c2c(c3c1OC(C)(CCC=C(C)C)C=C3)OC(C)(CCC=C(C)C)C=C2 (centres undefined) | 128 mg/L (≈ 206 µM) | > 128 mg/L | 8 mg/L (≈ 12.9 µM) | 4 mg/L (≈ 6.44 µM) | 4 mg/L (≈ 6.44 µM) | 4 mg/L (≈ 6.44 µM) | 18.1 µg/mL | 4.5 | 4 mg/L (≈ 6.44 µM) | 4 mg/L (≈ 6.44 µM) | 128 mg/L (≈ 206 µM) | > 128 mg/L
CC(=O)c1c(OCCCNCCCN2CCCC2)c2c(c3c1OC(C)(CCC=C(C)C)C=C3)OC(C)(CCC=C(C)C)C=C2 (centres undefined) | 16 mg/L (≈ 26.5 µM) | 16 mg/L (≈ 26.5 µM) | 4 mg/L (≈ 6.61 µM) | 4 mg/L (≈ 6.61 µM) | 4 mg/L (≈ 6.61 µM) | 4 mg/L (≈ 6.61 µM) | 19.7 µg/mL | 4.9 | 8 mg/L (≈ 13.2 µM) | 4 mg/L (≈ 6.61 µM) | 8 mg/L (≈ 13.2 µM) | 128 mg/L (≈ 212 µM)
COc1c(C(=O)/C=C/c2ccc(OCCCN)cc2)ccc2c1C=CC(C)(CCC=C(C)C)O2 (centres undefined) | 16 mg/L (≈ 34.7 µM) | 8 mg/L (≈ 17.3 µM) | 16 mg/L (≈ 34.7 µM) | 8 mg/L (≈ 17.3 µM) | 8 mg/L (≈ 17.3 µM) | 16 mg/L (≈ 34.7 µM) | 111 µg/mL | 13.8 | 8 mg/L (≈ 17.3 µM) | 8 mg/L (≈ 17.3 µM) | 16 mg/L (≈ 34.7 µM) | 16 mg/L (≈ 34.7 µM)

Source: ChEMBL document CHEMBL5614413, “Design, synthesis and biological evaluation of amphiphilic benzopyran derivatives as potent antibacterial agents against multidrug-resistant bacteria” (Eur J Med Chem, 2024)
